Reference: patent US8901118B2, “Compounds and methods for kinase modulation, and indications therefor” (Plexxikon Inc., priority 2010, dated 2014)
pIC50: −log10 of the molar value.

How the values were obtained:
CYP2C9 = CYP2C9 (Homo sapiens, UniProt P11712); experiment: CYP2C9 inhibition (fluorescent substrate MFC); assay type: in vitro ADME; settings: read-out: Cyp IC50 2C9
Outline: (§1)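 Compounds, serially diluted 1:1 over 10 points in NADPH-regenerating cofactor mix with 5% acetonitrile, were preincubated 10 min at 37 °C, then run with enzyme and substrate at 37 °C (CYP1A2 15 min; CYP2C9 45 min; CYP2C19, CYP2D6 30 min). Product fluorescence gave IC50s.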

Fms kinase = Fms kinase (Homo sapiens, UniProt P07333); experiment: Fms kinase biochemical activity assay (AlphaScreen, biotin-(E4Y)10 phosphorylation); settings: 100 μM ATP; read-out: Biochemical Inhibition IC50 Fms
Outline: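 Fms kinase (1 ng/well) phosphorylating 30 nM biotin-(E4Y)10 with 100 μM ATP in 25 mM Hepes pH 7.5, MgCl2/MnCl2, 5% DMSO, 20 min at 30 °C. Phosphotyrosine detected by AlphaScreen streptavidin donor and PY20 acceptor beads; IC50 from signal versus compound concentration.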

CYP2C19 = CYP2C19 (Homo sapiens, UniProt P33261); experiment: CYP2C19 inhibition (fluorescent substrate CEC); assay type: in vitro ADME; settings: read-out: Cyp IC50 2C19
Outline: as §1

c-Kit kinase = c-Kit kinase (Homo sapiens, UniProt P10721); experiment: c-Kit kinase biochemical activity assay (AlphaScreen, biotin-(E4Y)10 phosphorylation); settings: 100 μM ATP; read-out: Biochemical Inhibition IC50 Kit
Outline: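 Phosphorylation of 30 nM biotin-(E4Y)10 by c-Kit (0.75 ng per reaction) with 100 µM ATP in HEPES pH 7.5 buffer with Mg2+/Mn2+, 5% DMSO, 1 h at room temperature; 8-point 1:2 compound dilutions. AlphaScreen detection with streptavidin donor and PY20 acceptor beads after EDTA stop. IC50 from signal versus concentration.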

Sequence of CYP2C19 (P33261 whole entry): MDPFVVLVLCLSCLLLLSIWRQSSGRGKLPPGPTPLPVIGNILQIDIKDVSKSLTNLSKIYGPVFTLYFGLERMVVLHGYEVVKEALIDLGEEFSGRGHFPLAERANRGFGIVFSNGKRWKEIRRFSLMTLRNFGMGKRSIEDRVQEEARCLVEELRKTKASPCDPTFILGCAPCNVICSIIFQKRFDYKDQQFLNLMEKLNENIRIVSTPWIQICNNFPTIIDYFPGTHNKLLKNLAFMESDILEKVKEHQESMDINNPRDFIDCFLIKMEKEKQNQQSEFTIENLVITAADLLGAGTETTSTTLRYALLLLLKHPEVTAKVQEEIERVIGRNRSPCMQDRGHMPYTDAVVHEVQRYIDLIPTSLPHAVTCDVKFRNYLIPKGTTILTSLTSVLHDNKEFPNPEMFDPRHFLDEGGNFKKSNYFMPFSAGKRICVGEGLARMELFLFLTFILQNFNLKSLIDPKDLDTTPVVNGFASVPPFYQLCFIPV
Sequence of CYP2C9 (P11712 whole entry): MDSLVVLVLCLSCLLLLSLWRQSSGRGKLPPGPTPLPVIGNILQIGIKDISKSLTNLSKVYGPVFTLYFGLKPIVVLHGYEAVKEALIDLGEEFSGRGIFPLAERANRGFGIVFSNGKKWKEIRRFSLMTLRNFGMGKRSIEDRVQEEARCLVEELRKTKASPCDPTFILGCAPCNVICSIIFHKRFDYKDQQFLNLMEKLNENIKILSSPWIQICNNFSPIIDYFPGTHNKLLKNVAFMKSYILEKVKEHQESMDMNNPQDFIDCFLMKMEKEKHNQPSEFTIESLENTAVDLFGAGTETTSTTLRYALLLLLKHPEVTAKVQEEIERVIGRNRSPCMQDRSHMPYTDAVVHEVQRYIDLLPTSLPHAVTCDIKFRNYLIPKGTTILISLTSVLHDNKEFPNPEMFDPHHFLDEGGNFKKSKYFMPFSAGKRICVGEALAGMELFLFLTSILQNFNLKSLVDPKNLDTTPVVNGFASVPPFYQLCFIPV
Sequence of Fms kinase (P07333 20-972): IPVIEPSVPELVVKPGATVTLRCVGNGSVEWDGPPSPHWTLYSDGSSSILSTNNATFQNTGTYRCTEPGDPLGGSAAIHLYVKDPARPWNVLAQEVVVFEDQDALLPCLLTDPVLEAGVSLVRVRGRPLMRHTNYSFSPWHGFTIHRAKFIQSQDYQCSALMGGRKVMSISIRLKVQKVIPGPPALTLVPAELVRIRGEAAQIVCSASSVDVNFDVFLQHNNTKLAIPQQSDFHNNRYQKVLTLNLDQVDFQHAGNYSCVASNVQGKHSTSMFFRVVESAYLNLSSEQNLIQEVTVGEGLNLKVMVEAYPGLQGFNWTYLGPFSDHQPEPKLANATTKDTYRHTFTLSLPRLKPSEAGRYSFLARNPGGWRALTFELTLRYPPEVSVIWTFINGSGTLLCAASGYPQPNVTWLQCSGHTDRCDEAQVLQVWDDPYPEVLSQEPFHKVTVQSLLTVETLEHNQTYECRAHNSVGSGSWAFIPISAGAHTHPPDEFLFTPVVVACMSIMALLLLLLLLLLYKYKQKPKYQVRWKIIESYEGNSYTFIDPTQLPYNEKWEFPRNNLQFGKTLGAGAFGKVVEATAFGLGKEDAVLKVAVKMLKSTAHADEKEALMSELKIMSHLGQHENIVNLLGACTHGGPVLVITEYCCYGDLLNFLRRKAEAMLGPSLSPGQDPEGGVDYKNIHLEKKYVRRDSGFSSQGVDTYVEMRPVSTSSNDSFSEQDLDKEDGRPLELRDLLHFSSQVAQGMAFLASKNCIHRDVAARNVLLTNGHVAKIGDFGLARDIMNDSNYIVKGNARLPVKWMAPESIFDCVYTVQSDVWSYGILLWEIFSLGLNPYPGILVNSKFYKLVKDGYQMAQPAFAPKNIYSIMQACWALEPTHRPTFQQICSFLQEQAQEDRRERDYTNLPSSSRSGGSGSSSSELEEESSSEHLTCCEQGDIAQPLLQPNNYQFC
Sequence of c-Kit kinase (P10721 26-976): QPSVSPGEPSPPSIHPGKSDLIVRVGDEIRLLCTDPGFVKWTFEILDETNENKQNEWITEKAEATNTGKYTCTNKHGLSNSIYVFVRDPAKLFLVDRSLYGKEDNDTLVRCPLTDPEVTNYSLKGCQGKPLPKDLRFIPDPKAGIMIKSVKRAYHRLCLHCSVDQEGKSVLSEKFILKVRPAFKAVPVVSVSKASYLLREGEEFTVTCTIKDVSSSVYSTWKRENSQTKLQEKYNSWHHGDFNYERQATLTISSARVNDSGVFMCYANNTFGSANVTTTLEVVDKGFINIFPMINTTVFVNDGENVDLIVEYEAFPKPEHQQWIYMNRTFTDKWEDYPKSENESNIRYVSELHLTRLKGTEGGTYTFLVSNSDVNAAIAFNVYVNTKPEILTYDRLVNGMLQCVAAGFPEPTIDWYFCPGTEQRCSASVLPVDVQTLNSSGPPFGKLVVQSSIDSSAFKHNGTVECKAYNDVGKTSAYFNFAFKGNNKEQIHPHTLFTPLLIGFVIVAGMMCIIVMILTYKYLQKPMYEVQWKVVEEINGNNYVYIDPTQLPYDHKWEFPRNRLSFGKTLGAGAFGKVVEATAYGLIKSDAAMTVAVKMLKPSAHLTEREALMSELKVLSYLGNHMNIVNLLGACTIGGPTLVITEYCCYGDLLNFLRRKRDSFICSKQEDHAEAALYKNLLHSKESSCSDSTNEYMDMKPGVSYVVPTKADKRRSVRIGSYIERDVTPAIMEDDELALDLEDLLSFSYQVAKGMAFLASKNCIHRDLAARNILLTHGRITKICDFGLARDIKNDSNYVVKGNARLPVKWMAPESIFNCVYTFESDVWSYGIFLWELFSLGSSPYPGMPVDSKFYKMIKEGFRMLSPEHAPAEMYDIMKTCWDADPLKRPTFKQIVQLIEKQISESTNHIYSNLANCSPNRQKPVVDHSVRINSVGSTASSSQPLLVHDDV

Compound | pIC50 (CYP2C9) | pIC50 (Fms kinase) | pIC50 (CYP2C19) | pIC50 (c-Kit kinase)
COc1ccc(Nc2ccc(C(=O)c3c[nH]c4ncnc(NC5CCC5)c34)c(F)n2)cn1 [Compound P-4076, [4-(cyclobutylamino)-7H-pyrrolo[2,3-d]pyrimidin-5-yl]-[2-fluoro-6-[(6-methoxy-3-pyridyl)amino]-3-pyridyl]methanone] | < 5.00 | > 8.00 | 5.00 to 5.30 | > 7.00
CNc1ncnc2[nH]cc(C(=O)c3ccc(NC4CCC(F)(F)CC4)nc3Cl)c12 [Compound P-4058, [2-chloro-6-[(4,4-difluorocyclohexyl)amino]-3-pyridyl]-[4-(methylamino)-7H-pyrrolo[2,3-d]pyrimidin-5-yl]methanone] | < 5.00 | > 7.00 | < 5.00 | < 6.00
COc1ccc(Nc2ccc(C(=O)c3c[nH]c4ncnc(NC(C)(C)C)c34)c(F)n2)cn1 [Compound P-4055, [4-(tert-butylamino)-7H-pyrrolo[2,3-d]pyrimidin-5-yl]-[2-fluoro-6-[(6-methoxy-3-pyridyl)amino]-3-pyridyl]methanone] | < 5.00 | > 7.00 | > 5.00 | > 6.00
CCc1ccc(Nc2ccc(C(=O)c3c[nH]c4ncnc(N)c34)c(F)n2)cn1 [Compound P-4065, (4-amino-7H-pyrrolo[2,3-d]pyrimidin-5-yl)-[6-[(6-ethyl-3-pyridyl)amino]-2-fluoro-3-pyridyl]methanone] | < 5.00 | > 8.00 | < 5.00 | > 7.00
CNc1ncnc2[nH]cc(C(=O)c3ccc(NC4CCCCC4)nc3F)c12 [Compound P-4102, [6-(cyclohexylamino)-2-fluoro-3-pyridyl]-[4-(methylamino)-7H-pyrrolo[2,3-d]pyrimidin-5-yl]methanone] | > 5.30 | > 7.00 | > 5.30 | > 6.00
COc1cncc(Nc2ccc(C(=O)c3c[nH]c4ncnc(NC5CCCCC5)c34)c(F)n2)c1 [Compound P-4104, [4-(cyclohexylamino)-7H-pyrrolo[2,3-d]pyrimidin-5-yl]-[2-fluoro-6-[(5-methoxy-3-pyridyl)amino]-3-pyridyl]methanone] | < 5.00 | > 6.00 | 5.00 to 5.30 | > 6.00
CCc1ccc(Nc2ccc(C(=O)c3c[nH]c4ncnc(NC5CCOCC5)c34)c(F)n2)cn1 [Compound P-4116, [6-[(6-ethyl-3-pyridyl)amino]-2-fluoro-3-pyridyl]-[4-(tetrahydropyran-4-ylamino)-7H-pyrrolo[2,3-d]pyrimidin-5-yl]methanone] | < 5.00 | > 7.00 | < 5.00 | > 7.00
CCN1CCC(Nc2ncnc3[nH]cc(C(=O)c4ccc(Nc5ccc(OC)nc5)nc4F)c23)CC1 [Compound P-4074, [4-[(1-ethyl-4-piperidyl)amino]-7H-pyrrolo[2,3-d]pyrimidin-5-yl]-[2-fluoro-6-[(6-methoxy-3-pyridyl)amino]-3-pyridyl]methanone] | < 5.00 | > 7.00 | 5.00 to 5.30 | > 6.00
CCC(C)Nc1ncnc2[nH]cc(C(=O)c3ccc(Nc4ccc(OC)nc4)nc3F)c12 (centres unmarked) [Compound P-4078, [2-fluoro-6-[(6-methoxy-3-pyridyl)amino]-3-pyridyl]-[4-(sec-butylamino)-7H-pyrrolo[2,3-d]pyrimidin-5-yl]methanone] | < 5.00 | > 8.00 | < 5.00 | > 6.00
O=C(c1ccc(Nc2ccc(C3CC3)nc2)nc1F)c1c[nH]c2ncnc(NCC(F)(F)F)c12 [Compound P-4090, [6-[(6-cyclopropyl-3-pyridyl)amino]-2-fluoro-3-pyridyl]-[4-(2,2,2-trifluoroethylamino)-7H-pyrrolo[2,3-d]pyrimidin-5-yl]methanone] | < 5.00 | > 7.00 | < 5.00 | > 6.00
CCCNc1ncnc2[nH]cc(C(=O)c3ccc(Nc4ccc(CC)nc4)nc3F)c12 [Compound P-4122, [6-[(6-ethyl-3-pyridyl)amino]-2-fluoro-3-pyridyl]-[4-(propylamino)-7H-pyrrolo[2,3-d]pyrimidin-5-yl]methanone] | 5.00 to 5.30 | > 8.00 | < 5.00 | > 8.00
CNc1ncnc2[nH]cc(C(=O)c3ccc(NC4CCCCC4)nc3Cl)c12 [Compound P-4110, [2-chloro-6-(cyclohexylamino)-3-pyridyl]-[4-(methylamino)-7H-pyrrolo[2,3-d]pyrimidin-5-yl]methanone] | > 5.30 | > 7.00 | > 5.30 | > 6.00
COc1ccc(Nc2ccc(C(=O)c3c[nH]c4ncnc(NC5CCC(F)(F)CC5)c34)c(F)n2)cn1 [Compound P-4056, [4-[(4,4-difluorocyclohexyl)amino]-7H-pyrrolo[2,3-d]pyrimidin-5-yl]-[2-fluoro-6-[(6-methoxy-3-pyridyl)amino]-3-pyridyl]methanone] | < 5.00 | > 7.00 | 4.70 to 5.30 | > 7.00
CCc1ccc(Nc2ccc(C(=O)c3c[nH]c4ncnc(NCCOC)c34)c(F)n2)cn1 [Compound P-4119, [6-[(6-ethyl-3-pyridyl)amino]-2-fluoro-3-pyridyl]-[4-(2-methoxyethylamino)-7H-pyrrolo[2,3-d]pyrimidin-5-yl]methanone] | < 5.00 | > 8.00 | < 5.00 | > 8.00
